In BindingDB's records for doi:10.1016/S1074-5521(02)00240-5 (Nippon Roche Research Center, 2002):
pIC50: −log10 of the molar value.

Legend:
[1] = target: T1, Glycylpeptide N-tetradecanoyltransferase (Candida albicans (strain SC5314 / ATCC MYA-2876), UniProt P30418); assay: Inhibition Assay
T1 sequence (P30418 whole entry): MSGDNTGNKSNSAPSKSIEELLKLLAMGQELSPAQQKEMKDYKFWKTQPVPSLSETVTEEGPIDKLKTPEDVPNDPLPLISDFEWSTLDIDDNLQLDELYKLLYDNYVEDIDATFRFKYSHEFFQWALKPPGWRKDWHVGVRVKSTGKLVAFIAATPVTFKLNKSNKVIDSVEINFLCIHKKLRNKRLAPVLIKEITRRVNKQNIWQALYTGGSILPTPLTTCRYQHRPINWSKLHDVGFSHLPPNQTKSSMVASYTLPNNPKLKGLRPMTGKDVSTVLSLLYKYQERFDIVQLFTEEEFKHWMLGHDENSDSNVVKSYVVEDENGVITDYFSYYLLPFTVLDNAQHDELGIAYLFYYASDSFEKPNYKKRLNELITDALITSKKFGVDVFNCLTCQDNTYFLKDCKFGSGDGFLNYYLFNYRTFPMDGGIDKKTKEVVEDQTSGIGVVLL

[2] = target: T2, Glycylpeptide N-tetradecanoyltransferase 1 (Homo sapiens, UniProt P30419); assay: Inhibition Assay
T2 sequence (P30419 whole entry): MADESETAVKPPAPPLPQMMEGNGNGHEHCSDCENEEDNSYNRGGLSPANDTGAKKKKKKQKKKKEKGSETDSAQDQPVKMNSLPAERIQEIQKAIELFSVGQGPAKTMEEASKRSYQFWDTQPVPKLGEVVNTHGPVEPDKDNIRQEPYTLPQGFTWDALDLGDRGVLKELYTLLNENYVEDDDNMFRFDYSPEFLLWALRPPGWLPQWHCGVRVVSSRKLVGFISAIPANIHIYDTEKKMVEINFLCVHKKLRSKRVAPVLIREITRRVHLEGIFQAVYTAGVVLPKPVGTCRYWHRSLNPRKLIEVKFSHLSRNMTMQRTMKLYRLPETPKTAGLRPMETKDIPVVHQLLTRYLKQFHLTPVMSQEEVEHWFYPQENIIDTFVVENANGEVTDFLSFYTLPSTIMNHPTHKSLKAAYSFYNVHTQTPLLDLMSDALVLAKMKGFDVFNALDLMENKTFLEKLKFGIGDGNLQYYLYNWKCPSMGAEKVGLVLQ

Row | pIC50 [1] | pIC50 [2] | Structure (SMILES)
1 | 6.08 |  | COc1ccc(C(=O)NN=Cc2ccccc2C(=O)O)cc1OC [2-[(veratroylhydrazono)methyl]benzoic acid]
2 | 5.96 | < 3.24 | O=C(Nc1ccc(S(=O)(=O)NC2=NCCCCC2)cc1)C1COc2ccccc2O1 (stereo not drawn) [MLS000761278]
